{"source": "patent US20050146723A1", "about": "“Method for measuring surface plasmon resonance” (FUJI PHOTO FILM CO., LTD., priority 2003, published 2005)", "tested_on": "trypsin", "assay": "Evaluation of leupeptin-binding ability on trypsin-immobilized chip by surface plasmon resonance", "conditions": "10 min after initiation of replacement", "procedure": "The solution in the above-describe dextran measurement chip was removed therefrom. Thereafter, 70 μl of a mixed solution consisting of 200 mM EDC (N-ethyl-N′-(3-dimethylaminopropyl)carbodiimide hydrochloride) and 50 mM NHS (N-hydroxysuccinimide) was added to the measurement chip, and it was then left for 10 minutes. The mixed solution was removed from the measurement chip, and the chip was then washed with 100 μl of water 3 times, and then with 100 μl of buffer 1 (100 mM HEPES (N-2-hydroxyethylpiperazin-N′-2-ethanesulfonic acid), 150 mM NaCl, 10 mM CaCl2) 3 times. The chip containing 100 μl of buffer 1 was installed in the surface plasmon resonance measurement device of the present invention. The inside of the chip was replaced with a trypsin solution (produced by dissolving trypsin in buffer 1 to a concentration of 1 mg/ml), and it was then left for 30 minutes, so as to immobilize trypsin. Thereafter, the inside of the chip was replaced with a 1 M ethanolamine solution, and it was then left for 10 minutes. Thereafter, the inside of the chip was washed with 100 μl of buffer 1 ten times. The amount of a change in resonance signals due to immobilization of trypsin was 2,000 RU.\nWith regard to the trypsin-immobilized chip of the present invention, the dielectric block was capped with silicon rubber, so as to produce a cell with an internal volume of 15 μl. In the case of such a block cell, the volume of the cell is determined with a space surrounded by the measurement chip and the cap. Two holes each having a diameter of 1 mm were formed through the silicon rubber used as a cap, and a Teflon tube having an inside diameter of 0.5 mm and an outside diameter of 1 mm was passed through each of these holes, so as to produce a flow channel. Likewise, a cap and a flow channel were produced for a reference chip. Thereafter, the two chips were connected in series, so as to produce a flow channel system. Each of the two chips in this flow channel system was installed in the surface plasmon resonance measurement device of the present invention.\nThe inside of the flow channel system was filled with buffer 2 (10 mM HEPES, 150 mM NaCl). Defining the state before the exchange of the liquid as a standard, a change in signals was measured at intervals of 0.5 seconds. The inside of the flow channel system was replaced with a leupeptin solution produced by dissolving leupeptin in buffer 2 to a concentration of 1 μg/ml) by each method described in Table 1. The level of noise generated on the reference chip side at 2 to 10 minutes after initiation of the replacement, and changes in signals on the trypsin-immobilized chip side and on the reference chip side at 10 minutes after initiation of the replacement, are shown in Table 1. In order to obtain binding detection data with high reliability, it is preferable that the width of noise level (the difference between the maximum and the minimum in a change in signals) be within 10 RU, and that the base line fluctuation, that is, the change in signals on the reference chip side be within 10 RU. More preferably, the above values are both within 5 RU.\nThe inside of the flow channel system was filled with buffer 2 (10 mM HBPES, 150 mM NaCl). Defining the state before the exchange of the liquid as a standard, a change in signals was measured at intervals of 0.5 seconds. The inside of the flow channel system was replaced with a leupeptin solution (produced by dissolving leupeptin in buffer 2 to a concentration of 1 μg ml) by each method described in Table 2. The level of noise generated on the reference chip side at 2 to 10 minutes after initiation of the replacement, and changes in signals on the trypsin-immobilized chip side and on the reference chip side at 10 minutes after initiation of the replacement, are shown in Table 2. […]"}
{"smiles": "CC(=O)N[C@@H](CC(C)C)C(=O)N[C@@H](CC(C)C)C(=O)N[C@H](C=O)CCCNC(=N)N", "note": "[leupeptin]", "values": [{"measurement": "Signal change Immobilized chip", "setting": "Table 1 method No. 1: leupeptin 1 μg/ml, flow 4 ml/min, exchange 0.125 min, termination 9.875 min, Ve/Vs 16.7", "value": 19, "unit": "RU"}, {"measurement": "Signal change Immobilized chip", "setting": "Table 1 method No. 2: leupeptin 1 μg/ml, flow 4 ml/min, exchange 0.25 min, termination 9.75 min, Ve/Vs 33.3", "value": 21, "unit": "RU"}, {"measurement": "Signal change Immobilized chip", "setting": "Table 1 method No. 3: leupeptin 1 μg/ml, flow 4 ml/min, exchange 1 min, termination 9 min, Ve/Vs 133.3", "value": 20, "unit": "RU"}, {"measurement": "Signal change Immobilized chip", "setting": "Table 1 method No. 4: leupeptin 1 μg/ml, flow 4 ml/min, exchange 1.5 min, termination 8.5 min, Ve/Vs 200.0", "value": 21, "unit": "RU"}, {"measurement": "Signal change Immobilized chip", "setting": "Table 1 method No. 5 (comparative): leupeptin 1 μg/ml, flow 4 ml/min, exchange 10 min, termination 0 min, Ve/Vs 1333.3", "value": 12, "unit": "RU"}, {"measurement": "Signal change Immobilized chip", "setting": "Table 1 method No. 6 (comparative): leupeptin 1 μg/ml, flow 2 ml/min, exchange 10 min, termination 0 min, Ve/Vs 666.7", "value": 25, "unit": "RU"}, {"measurement": "Signal change Immobilized chip", "setting": "Table 1 method No. 7 (comparative): leupeptin 1 μg/ml, flow 1 ml/min, exchange 10 min, termination 0 min, Ve/Vs 333.3", "value": 18, "unit": "RU"}, {"measurement": "Signal change Immobilized chip", "setting": "Table 1 method No. 8 (comparative): leupeptin 1 μg/ml, flow 0.5 ml/min, exchange 10 min, termination 0 min, Ve/Vs 166.7", "value": 26, "unit": "RU"}, {"measurement": "Signal change Immobilized chip", "setting": "Table 2 method No. 1: leupeptin 1 μg ml, flow 4 ml/min, exchange 0.125 min, termination 9.875 min, Ve/Vs 16.7", "value": 19, "unit": "RU"}, {"measurement": "Signal change Immobilized chip", "setting": "Table 2 method No. 2: leupeptin 1 μg ml, flow 4 ml/min, exchange 0.25 min, termination 9.75 min, Ve/Vs 33.3", "value": 21, "unit": "RU"}, {"measurement": "Signal change Immobilized chip", "setting": "Table 2 method No. 3 (comparative): leupeptin 1 μg ml, flow 4 ml/min, exchange 10 min, termination 0 min, Ve/Vs 1333.3", "value": 12, "unit": "RU"}, {"measurement": "Signal change Immobilized chip", "setting": "Table 2 method No. 4 (comparative): leupeptin 1 μg ml, flow 2 ml/min, exchange 10 min, termination 0 min, Ve/Vs 666.7", "value": 25, "unit": "RU"}, {"measurement": "Signal change Immobilized chip", "setting": "Table 2 method No. 5 (comparative): leupeptin 1 μg ml, flow 1 ml/min, exchange 10 min, termination 0 min, Ve/Vs 333.3", "value": 18, "unit": "RU"}, {"measurement": "Signal change Immobilized chip", "setting": "Table 2 method No. 6 (comparative): leupeptin 1 μg ml, flow 0.5 ml/min, exchange 10 min, termination 0 min, Ve/Vs 166.7", "value": 26, "unit": "RU"}, {"measurement": "Signal change Immobilized chip", "setting": "Table 2 method No. 7: leupeptin 1 μg ml, flow 0.2 ml/min, exchange 10 min, termination 0 min, Ve/Vs 66.7", "value": 22, "unit": "RU"}, {"measurement": "Signal change Immobilized chip", "setting": "Table 2 method No. 8: leupeptin 1 μg ml, flow 0.1 ml/min, exchange 10 min, termination 0 min, Ve/Vs 33.3", "value": 20, "unit": "RU"}]}
